From paper PMC5947510 (2015)

The molecules below were run on pre-miR-27a (RNA, miRNA) GGGCUGAGGAGCAGGGCUUAGCUGCUUGUGAGCAGGGUCCACACCAAGUCGUGUUCACAGUGGCUAAGUUCCGCCCCCCAG (assay: fluorescence titration (bisbenzimidazole emission)). Conditions: 10 mM NaCl, 1 mM MgCl2; 10 mM sodium cacodylate, pH 7.5, 25 °C; compound 500 nM.

Compared with `CN1CCN(c2ccc3nc(-c4ccc5nc(-c6ccc(OCCCCCCOCc7cn(C[C@H]8O[C@@H](O[C@@H]9[C@@H](O)[C@H](N)C[C@H](N)[C@H]9O[C@H]9O[C@H](CN)[C@@H](O)[C@H](O)[C@H]9N)[C@H](O)[C@@H]8O[C@H]8O[C@@H](CN)[C@@H](O)[C@H](O)[C@H]8N)nn7)cc6)[nH]c5c4)[nH]c3c2)CC1`, `CN1CCN(c2ccc3nc(-c4ccc5nc(-c6ccc(OCCCCCCCCOCc7cn(C[C@H]8O[C@@H](O[C@@H]9[C@@H](O)[C@H](N)C[C@H](N)[C@H]9O[C@H]9O[C@H](CN)[C@@H](O)[C@H](O)[C@H]9N)[C@H](O)[C@@H]8O[C@H]8O[C@@H](CN)[C@@H](O)[C@H](O)[C@H]8N)nn7)cc6)[nH]c5c4)[nH]c3c2)CC1` is 4.8-fold lower in Ka: 1.2e+08 M⁻¹ for the first, 2.5e+07 M⁻¹ for the second.

Compared with `CN1CCN(c2ccc3nc(-c4ccc5nc(-c6ccc(OCCCCCCCCCc7cn(C[C@H]8O[C@@H](O[C@@H]9[C@@H](O)[C@H](N)C[C@H](N)[C@H]9O[C@H]9O[C@H](CN)[C@@H](O)[C@H](O)[C@H]9N)[C@H](O)[C@@H]8O[C@H]8O[C@@H](CN)[C@@H](O)[C@H](O)[C@H]8N)nn7)cc6)[nH]c5c4)[nH]c3c2)CC1`, `CN1CCN(c2ccc3nc(-c4ccc5nc(-c6ccc(OCCCCCCCCCCOCc7cn(C[C@H]8O[C@@H](O[C@@H]9[C@@H](O)[C@H](N)C[C@H](N)[C@H]9O[C@H]9O[C@H](CN)[C@@H](O)[C@H](O)[C@H]9N)[C@H](O)[C@@H]8O[C@H]8O[C@@H](CN)[C@@H](O)[C@H](O)[C@H]8N)nn7)cc6)[nH]c5c4)[nH]c3c2)CC1` is 27-fold lower in Ka: 3.2e+08 M⁻¹ for the first, 1.2e+07 M⁻¹ for the second.

First: CN1CCN(c2ccc3nc(-c4ccc5nc(-c6ccc(OCCCCOCc7cn(C[C@H]8O[C@@H](O[C@@H]9[C@@H](O)[C@H](N)C[C@H](N)[C@H]9O[C@H]9O[C@H](CN)[C@@H](O)[C@H](O)[C@H]9N)[C@H](O)[C@@H]8O[C@H]8O[C@@H](CN)[C@@H](O)[C@H](O)[C@H]8N)nn7)cc6)[nH]c5c4)[nH]c3c2)CC1
Second: CN1CCN(c2ccc3nc(-c4ccc5nc(-c6ccc(O)cc6)[nH]c5c4)[nH]c3c2)CC1
The Ka of the first is 220-fold higher: 7.4e+08 M⁻¹ for the first, 3.4e+06 M⁻¹ for the second.
